Assay results taken from ChEMBL document CHEMBL5331090, “Modes of action insights from the crystallographic structures of retinoic acid receptor-related orphan receptor-γt (RORγt)” (Eur J Med Chem, 2023).

Tests used:
[1] = biological target: T1, Nuclear receptor ROR-gamma (Homo sapiens, UniProt P51449); assay: Antagonist activity at RORgammat LBD (unknown origin) LBD
T1 sequence (P51449 whole entry): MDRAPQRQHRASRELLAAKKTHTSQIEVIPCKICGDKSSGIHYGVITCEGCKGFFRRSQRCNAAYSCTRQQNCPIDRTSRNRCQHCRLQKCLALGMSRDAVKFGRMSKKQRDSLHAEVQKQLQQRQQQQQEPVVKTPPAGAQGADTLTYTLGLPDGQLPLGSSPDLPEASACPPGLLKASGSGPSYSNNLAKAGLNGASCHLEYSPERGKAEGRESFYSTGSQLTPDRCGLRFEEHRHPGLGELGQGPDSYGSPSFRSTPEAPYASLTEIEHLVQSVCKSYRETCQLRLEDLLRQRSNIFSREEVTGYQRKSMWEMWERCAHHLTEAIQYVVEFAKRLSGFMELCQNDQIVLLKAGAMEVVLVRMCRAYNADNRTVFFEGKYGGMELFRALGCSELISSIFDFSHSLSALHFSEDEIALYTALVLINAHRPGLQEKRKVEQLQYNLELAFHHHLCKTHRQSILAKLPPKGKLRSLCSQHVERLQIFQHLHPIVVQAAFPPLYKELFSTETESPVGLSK

[2] = Antagonist activity at RORgammat LBD (unknown origin)/NCoR2 (unknown origin) interaction; design: species or system Homo sapiens

IC50 [1]: 1800 nM | IC50 [2]: 3.9 µM
SMILES: C[C@H]1O[C@@H](O[C@H]2[C@@H](O)C[C@H](O[C@H]3[C@@H](O)C[C@H](O[C@H]4CC[C@@]5(C)[C@H](CC[C@@H]6[C@@H]5C[C@@H](O)[C@]5(C)[C@@H](C7=CC(=O)OC7)CC[C@]65O)C4)O[C@@H]3C)O[C@@H]2C)C[C@H](O)[C@@H]1O [DIGOXIN]
